Experimental data: US4705753A, “Biologically active acrylonitrile-based copolymeric membrane” (priority 1984, dated 1987)

Target: glucose isomerase (GI) from Streptomyces albus, purified, covalently immobilized on acrylonitrile copolymer membrane (Streptomyces albus G, UniProt P24299)
Settings: substrate glucose; membrane-bound GI; 70° C., pH 6.8 maleate buffer, 7 mM MgSO4, 3 mM CoSO4

Sequence of glucose isomerase (GI) from Streptomyces albus, purified, covalently immobilized on acrylonitrile copolymer membrane (P24299 whole entry): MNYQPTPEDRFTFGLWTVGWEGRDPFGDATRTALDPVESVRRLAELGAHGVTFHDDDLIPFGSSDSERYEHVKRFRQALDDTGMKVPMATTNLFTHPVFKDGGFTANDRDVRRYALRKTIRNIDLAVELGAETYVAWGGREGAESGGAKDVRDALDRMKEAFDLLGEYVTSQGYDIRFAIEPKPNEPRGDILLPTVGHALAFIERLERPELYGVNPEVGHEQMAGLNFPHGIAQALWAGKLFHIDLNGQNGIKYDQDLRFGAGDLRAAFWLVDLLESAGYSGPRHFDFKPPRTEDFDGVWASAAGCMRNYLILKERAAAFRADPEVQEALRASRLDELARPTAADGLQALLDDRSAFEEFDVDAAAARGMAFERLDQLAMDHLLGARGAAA

## OC[C@H]1OC(O)[C@H](O)[C@@H](O)[C@@H]1O (stereo partly shown) [glucose]
  Vmax for the immobilized GI: ~15 µmol/min/mg
